43 molecules from patent US6914122B2 (priority 2000, dated 2005) can be followed below.

This experiment addresses Recombinant heterodimeric HCV NS3/NS4A protease (strain 1a) (Hepatitis C virus genotype 1a, UniProt P27958). As to the kind of experiment: biochemical. Also on record: species or system HCV (strain 1a).

pKi: −log10 of the molar value. *1 amine or outer side, *2 acyl side, *3 side chain or, on linkers, in order; H or OH if unused. Where a SMILES comes first, the peptide text is derived from it. Bridges are numbered along the chain shown (N, C = ends). [ ]: non-standard residue; d: D form. The star is where a group is joined. ξ: configuration not given here. Phe(3-(CH2)7CO) = O=C([C@H](Cc1cccc(CCCCCCCC(=O)[*:3])c1)N[*:1])[*:2]; Azelaoyl = O=C(CCCCCCCC(=O)[*:2])[*:1]; Suberoyl = O=C(CCCCCCC(=O)[*:2])[*:1]; Adipoyl = O=C(CCCCC(=O)[*:2])[*:1]; Glutaryl = O=C(CCCC(=O)[*:2])[*:1]; X1 = CCCC(N[*:1])C(=O)C(=O)[*:2]; Chg = N[C@H](C(=O)O)C1CCCCC1; Phg = N[C@H](C(=O)O)c1ccccc1; Suc = O=C(CCC(=O)[*:2])[*:1]; ξChg = NC(C(=O)O)C1CCCCC1; OtBu = CC(C)(C)O*

The pKi is −log10 of the Ki, conventionally taken in molar units.

Recombinant heterodimeric HCV NS3/NS4A protease (strain 1a), sequence (P27958 1027-1657 limits assumed): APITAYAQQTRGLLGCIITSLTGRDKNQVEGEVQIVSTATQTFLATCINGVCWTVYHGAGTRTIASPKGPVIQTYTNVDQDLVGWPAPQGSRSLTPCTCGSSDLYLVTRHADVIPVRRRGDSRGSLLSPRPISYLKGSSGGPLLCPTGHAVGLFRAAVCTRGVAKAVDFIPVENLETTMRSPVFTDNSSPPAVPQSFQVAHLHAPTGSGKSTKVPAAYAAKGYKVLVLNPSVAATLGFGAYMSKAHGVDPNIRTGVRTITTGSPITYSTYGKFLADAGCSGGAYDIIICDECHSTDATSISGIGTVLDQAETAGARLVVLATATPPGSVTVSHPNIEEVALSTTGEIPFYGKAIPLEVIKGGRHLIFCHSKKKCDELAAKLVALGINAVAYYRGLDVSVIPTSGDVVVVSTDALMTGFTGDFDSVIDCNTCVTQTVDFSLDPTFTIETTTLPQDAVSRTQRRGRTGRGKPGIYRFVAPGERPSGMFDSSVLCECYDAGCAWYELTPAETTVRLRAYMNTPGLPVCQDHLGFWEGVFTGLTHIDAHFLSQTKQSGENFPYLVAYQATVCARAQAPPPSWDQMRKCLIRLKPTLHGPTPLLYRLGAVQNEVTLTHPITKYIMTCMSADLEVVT
Recombinant heterodimeric HCV NS3/NS4A protease (strain 1a), sequence (P27958 1658-1711 partner limits assumed): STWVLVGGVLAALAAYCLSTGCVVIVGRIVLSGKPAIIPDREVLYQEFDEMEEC

Turning to `CCCC(NC(=O)[C@@H]1Cc2cccc(c2)Oc2ccc(cc2)CC(NC(C)=O)C(=O)N[C@@H](C2CCCCC2)C(=O)N1)C(=O)C(=O)NCC(=O)O` (stereo partly shown) [Example 32], the negative-log Ki (pKi) is 4.00 to 5.96.

In the case of `CCCC(NC(=O)[C@@H]1Cc2cccc(c2)OCCCCCNC(=O)N[C@@H](C2CCCCC2)C(=O)N1)C(=O)C(=O)NCC(=O)N[C@H](C(=O)O)c1ccccc1` (stereo partly shown) [Example 20], the pKi was 6.00 to 9.00.

For the molecule `CCCC(NC(=O)[C@@H]1CCCCNC(=O)CCC(=O)NCC(=O)N[C@@H](C2CCCCC2)C(=O)N1)C(=O)C(=O)NCC(=O)N[C@H](C(N)=O)c1ccccc1` (stereo partly shown) [Example 49] (G[Chg]K[X1]G[Phg]-NH2; linker N-3 via Suc), the pKi was 4.00 to 5.96.

Take `CCCC(NC(=O)[C@H]1Cc2cccc(c2)Oc2ccc(cc2)CCC(=O)N[C@@H](C2CCCCC2)C(=O)O1)C(=O)C(=O)NCC(=O)N[C@H](C(=O)OC(C)(C)C)c1ccccc1` (stereo partly shown) [Example 37]: the negative logarithm of the Ki (pKi) is 4.00 to 5.96.

For the molecule `CCCC(NC(=O)[C@@H]1Cc2cccc(c2)OCCCCCNC(=O)N[C@@H](C2CCCCC2)C(=O)N1)C(=O)C(=O)NCC(=O)N[C@H](C(=O)OC(C)(C)C)c1ccccc1` (stereo partly shown) [Example 19], the negative-log Ki (pKi) is 4.00 to 5.96.

Consider `CCCC(NC(=O)[C@@H]1Cc2cccc(c2)OCCCCCC(=O)N[C@@H](C2CCCCC2)C(=O)N1)C(=O)C(=O)NCC(=O)N[C@H](C(=O)O)c1ccccc1` (stereo partly shown) [Example 14], for which the pKi is 4.00 to 5.96.

Take `CCCC(NC(=O)[C@@H]1CCCCNC(=O)CCC(=O)N[C@@H](C2CCCCC2)C(=O)N1)C(=O)C(=O)NCC(=O)N[C@H](C(N)=O)c1ccccc1` (stereo partly shown) [Example 51] ([Chg]K[X1]G[Phg]-NH2; linker N-2 via Suc): the negative logarithm of the Ki (pKi) was 4.00 to 5.96.

With `CCCC(NC(=O)[C@@H]1Cc2cccc(c2)Oc2ccc(cc2)CC(NC(C)=O)C(=O)N[C@@H](C2CCCCC2)C(=O)N1)C(=O)C(=O)NCC(=O)N[C@H](C(=O)O)c1ccccc1` (stereo partly shown) [Example 30], the negative logarithm of the Ki (pKi) is 6.00 to 9.00.

As to `CCCC(NC(=O)C1Cc2cccc(c2)Oc2ccc(cc2)CCCC(=O)NC(C2CCCCC2)C(=O)N1)C(=O)C(=O)NCC(=O)NC(C(=O)O)c1ccccc1` (stereo not shown) [Example 6], the pKi was 6.00 to 9.00.

Turning to `CCCC(NC(=O)C1Cc2cccc(c2)Oc2ccc(cc2)CCC(=O)NC(C2CCCCC2)C(=O)N1)C(=O)C(=O)NCC(=O)NC(C(=O)O)c1ccccc1` (stereo not shown) [Example 2], the pKi is 6.00 to 9.00.

In the case of `CCCC(NC(=O)C1Cc2cccc(c2)Oc2ccc(cc2)CCC(=O)NCC(=O)N1)C(=O)C(=O)NCC(=O)NC(C(=O)O)c1ccccc1` (stereo not shown) [Example 10], the negative-log Ki (pKi) was 4.00 to 5.96.

As for `CCCC(NC(=O)[C@@H]1CCCCNC(=O)CCCCCCC(=O)N[C@@H](C2CCCCC2)C(=O)N1)C(=O)C(=O)NCC(=O)N[C@H](C(N)=O)c1ccccc1` (stereo partly shown) [Example 41] ([Chg]K[X1]G[Phg]-NH2; linker N-2 via Suberoyl), the pKi was 6.00 to 9.00.

`CCCC(NC(=O)[C@@H]1CCCCNC(=O)CCCCC(=O)N[C@@H](C2CCCCC2)C(=O)N1)C(=O)C(=O)NCC(=O)N[C@H](C(N)=O)c1ccccc1` (stereo partly shown) [Example 52] ([Chg]K[X1]G[Phg]-NH2; linker N-2 via Adipoyl): the negative logarithm of the Ki (pKi) was 6.00 to 9.00.

In the case of `CCCC(NC(=O)C1Cc2cccc(c2)Oc2ccc(cc2)CCC(=O)NC(C2CCCCC2)C(=O)O1)C(=O)C(=O)NCC(=O)NC(C(=O)O)c1ccccc1` (stereo not shown) [Example 34], the pKi was 4.00 to 5.96.

As to `CCCC(NC(=O)[C@@H]1Cc2cccc(c2)OCCCCCCOC(=O)N[C@@H](C2CCCCC2)C(=O)N1)C(=O)C(=O)NCC(=O)N[C@H](C(=O)O)c1ccccc1` (stereo partly shown) [Example 22], the negative-log Ki (pKi) is 6.00 to 9.00.

On to `CCCC(NC(=O)C1Cc2cccc(c2)OCCCCCCOC(=O)NC(C2CCCCC2)C(=O)N1)C(=O)C(=O)NCC(=O)N[C@H](C(=O)N(C)C)c1ccccc1` (stereo partly shown) [Example 39], for which the pKi was 6.00 to 9.00.

For the molecule `CCCC(NC(=O)[C@@H]1CCCCNC(=O)CCCC(=O)N[C@H](CCC(=O)O)C(=O)N[C@@H](C2CCCCC2)C(=O)N1)C(=O)C(=O)NCC(=O)N[C@H](C(N)=O)c1ccccc1` (stereo partly shown) [Example 48] ([dE][Chg]K[X1]G[Phg]-NH2; linker N-3 via Glutaryl), the pKi is 4.00 to 5.96.

As for `CCCC(NC(=O)[C@@H]1Cc2cccc(c2)C=CCCCCCC(=O)N[C@@H](C2CCCCC2)C(=O)N1)C(=O)C(=O)NCC(=O)N[C@H](C(=O)O)c1ccccc1` (stereo partly shown) [Example 16], the pKi is 6.00 to 9.00.

With `CCCC(NC(=O)[C@@H]1CCCCNC(=O)Cc2ccc(cc2)CC(=O)N[C@@H](C2CCCCC2)C(=O)N1)C(=O)C(=O)NCC(=O)N[C@H](C(N)=O)c1ccccc1` (stereo partly shown) [Example 44], the negative logarithm of the Ki (pKi) was 6.00 to 9.00.

For `CCCC(NC(=O)C1Cc2cccc(c2)Oc2ccc(cc2)CC(NC(C)=O)C(=O)NC(C2CCCCC2)C(=O)N1)C(=O)C(=O)NCC(=O)OC(C)(C)C` (stereo not shown) [Example 31], the negative logarithm of the Ki (pKi) was 4.00 to 5.96.

Regarding `CCCC(NC(=O)C1Cc2cccc(c2)Oc2ccc(cc2)CCC(=O)NC(C2CCCCC2)C(=O)N1)C(=O)C(=O)NCC(=O)O` (stereo not shown) [Example 4], the pKi is 4.00 to 5.96.

Turning to `CCCC(NC(=O)C1Cc2cccc(c2)Oc2ccc(cc2)CCC(=O)NC(C2CCCCC2)C(=O)O1)C(=O)C(=O)NCC(=O)NC(C(=O)OC(C)(C)C)c1ccccc1` (stereo not shown) [Example 33], the pKi is 4.00 to 5.96.

Turning to `CCCC(NC(=O)[C@@H]1CCCCNC(=O)CCCC(=O)NC(C2CCCCC2)C(=O)N1)C(=O)C(=O)NCC(=O)N[C@H](C(N)=O)c1ccccc1` (stereo partly shown) [Example 40] ([ξChg]K[X1]G[Phg]-NH2; linker N-2 via Glutaryl), the pKi is 4.00 to 5.96.

As for `CCCC(NC(=O)[C@H]1Cc2cccc(c2)Oc2ccc(cc2)CCC(=O)N[C@@H](C2CCCCC2)C(=O)O1)C(=O)C(=O)NCC(=O)N[C@H](C(=O)O)c1ccccc1` (stereo partly shown) [Example 38], the negative-log Ki (pKi) is 4.00 to 5.96.

`CCCC(NC(=O)[C@@H]1CCCCNC(=O)CCCC(=O)N[C@H](CC(=O)O)C(=O)N[C@@H](C2CCCCC2)C(=O)N1)C(=O)C(=O)NCC(=O)N[C@H](C(N)=O)c1ccccc1` (stereo partly shown) [Example 46] ([dD][Chg]K[X1]G[Phg]-NH2; linker N-3 via Glutaryl): the pKi is 4.00 to 5.96.

In the case of `CCCC(NC(=O)[C@@H]1CCCCNC(=O)CCCC(=O)NCC(=O)N[C@@H](C2CCCCC2)C(=O)N1)C(=O)C(=O)NCC(=O)N[C@H](C(N)=O)c1ccccc1` (stereo partly shown) [Example 50] (G[Chg]K[X1]G[Phg]-NH2; linker N-3 via Glutaryl), the negative-log Ki (pKi) is 4.00 to 5.96.

With `CCCC(NC(=O)C1Cc2cccc(c2)Oc2ccc(cc2)CCCCC(=O)NC(C2CCCCC2)C(=O)N1)C(=O)C(=O)NCC(=O)NC(C(=O)OC(C)(C)C)c1ccccc1` (stereo not shown) [Example 7], the pKi is 4.00 to 5.96.

As for `CCCC(NC(=O)[C@@H]1Cc2cccc(c2)OCCCCCC(=O)N[C@@H](C2CCCCC2)C(=O)N1)C(=O)C(=O)NCC(=O)N[C@H](C(=O)OC(C)(C)C)c1ccccc1` (stereo partly shown) [Example 13], the pKi is 4.00 to 5.96.

Turning to `CCCC(NC(=O)[C@@H]1CCCCNC(=O)CCC(=O)N[C@H](CC(=O)O)C(=O)N[C@@H](C2CCCCC2)C(=O)N1)C(=O)C(=O)NCC(=O)N[C@H](C(N)=O)c1ccccc1` (stereo partly shown) [Example 45] ([dD][Chg]K[X1]G[Phg]-NH2; linker N-3 via Suc), the pKi was 4.00 to 5.96.

`CCCC(NC(=O)[C@@H]1Cc2cccc(c2)CCCCCCCC(=O)N[C@@H](C2CCCCC2)C(=O)N1)C(=O)C(=O)NCC(=O)N[C@H](C(=O)O)c1ccccc1` (stereo partly shown) [Example 18] ([Chg][Phe(3-(CH2)7CO)][X1]G[Phg]-OH; lactam N-2): the negative-log Ki (pKi) was 6.00 to 9.00.

With `CCCC(NC(=O)C1Cc2cccc(c2)Oc2ccc(cc2)CCC(=O)NC(C2CCCCC2)C(=O)N1)C(=O)C(=O)NCC(=O)OC(C)(C)C` (stereo not shown) [Example 3], the pKi is 4.00 to 5.96.

With `CCCC(NC(=O)C1Cc2cn(cn2)CCCCCCCC(=O)NC(C2CCCCC2)C(=O)N1)C(=O)C(=O)NCC(=O)NC(C(=O)OC(C)(C)C)c1ccccc1` (stereo not shown) [Example 23], the pKi was 4.00 to 5.96.

Consider `CCCC(NC(=O)[C@@H]1Cc2cccc(c2)OCCCCCCC(=O)N[C@@H](C2CCCCC2)C(=O)N1)C(=O)C(=O)NCC(=O)N[C@H](C(=O)OC(C)(C)C)c1ccccc1` (stereo partly shown) [Example 11], for which the pKi was 4.00 to 5.96.

As for `CCCC(NC(=O)[C@@H]1Cc2cccc(c2)C=CCCCCCC(=O)N[C@@H](C2CCCCC2)C(=O)N1)C(=O)C(=O)NCC(=O)N[C@H](C(=O)OC(C)(C)C)c1ccccc1` (stereo partly shown) [Example 15], the pKi was 4.00 to 5.96.

`CCCC(NC(=O)[C@@H]1CCCCNC(=O)CCC(=O)N[C@H](CCC(=O)O)C(=O)N[C@@H](C2CCCCC2)C(=O)N1)C(=O)C(=O)NCC(=O)N[C@H](C(N)=O)c1ccccc1` (stereo partly shown) [Example 47] ([dE][Chg]K[X1]G[Phg]-NH2; linker N-3 via Suc): the pKi was 4.00 to 5.96.

For the molecule `CCCC(NC(=O)C1Cc2cccc(c2)Oc2ccc(cc2)CCCCC(=O)NC(C2CCCCC2)C(=O)N1)C(=O)C(=O)NCC(=O)NC(C(=O)O)c1ccccc1` (stereo not shown) [Example 8], the pKi is 6.00 to 9.00.

Regarding `CCCC(NC(=O)[C@@H]1Cc2cn(cn2)CCCCCCCC(=O)N[C@@H](C2CCCCC2)C(=O)N1)C(=O)C(=O)NCC(=O)N[C@H](C(=O)O)c1ccccc1` (stereo partly shown) [Example 24], the pKi is 4.00 to 5.96.

For `CCCC(NC(=O)C1Cc2cccc(c2)Oc2ccc(cc2)CC(NC(=O)OC(C)(C)C)C(=O)NC(C2CCCCC2)C(=O)N1)C(=O)C(=O)NCC(=O)O` (stereo not shown) [Example 28], the pKi is 4.00 to 5.96.

For the molecule `CCCC(NC(=O)[C@@H]1Cc2cccc(c2)CCCCCCCC(=O)N[C@@H](C2CCCCC2)C(=O)N1)C(=O)C(=O)NCC(=O)N[C@H](C(=O)OC(C)(C)C)c1ccccc1` (stereo partly shown) [Example 17] ([Chg][Phe(3-(CH2)7CO)][X1]G[Phg]-OtBu; lactam N-2), the pKi is 4.00 to 5.96.

Take `CCCC(NC(=O)[C@@H]1CCCCNC(=O)Cc2cccc(c2)CC(=O)N[C@@H](C2CCCCC2)C(=O)N1)C(=O)C(=O)NCC(=O)N[C@H](C(N)=O)c1ccccc1` (stereo partly shown) [Example 43]: the negative logarithm of the Ki (pKi) is 6.00 to 9.00.

As for `CCCC(NC(=O)C1Cc2cccc(c2)Oc2ccc(cc2)CC(NC(C)=O)C(=O)NC(C2CCCCC2)C(=O)N1)C(=O)C(=O)NCC(=O)NC(C(=O)OC(C)(C)C)c1ccccc1` (stereo not shown) [Example 29], the pKi is 4.00 to 5.96.

`CCCC(NC(=O)[C@@H]1Cc2cccc(c2)OCCCCCCC(=O)N[C@@H](C2CCCCC2)C(=O)N1)C(=O)C(=O)NCC(=O)N[C@H](C(=O)O)c1ccccc1` (stereo partly shown) [Example 12]: the negative logarithm of the Ki (pKi) is 6.00 to 9.00.

In the case of `CCCC(NC(=O)[C@@H]1CCCCNC(=O)CCCCCCCC(=O)N[C@@H](C2CCCCC2)C(=O)N1)C(=O)C(=O)NCC(=O)N[C@H](C(N)=O)c1ccccc1` (stereo partly shown) [Example 42] ([Chg]K[X1]G[Phg]-NH2; linker N-2 via Azelaoyl), the pKi was 4.00 to 5.96.
